Assays:
breast cancer = assay: Antitumor activity, MTT cell viability, breast cancer; format: cell-based; details: 50 μg/mL, 24 hours
Description: (§1) In a 96-well microplate, 100 μL of culture medium was put in each well and inoculate four cell strains with a fusion degree of 80% at a density of 8×10^3 cells. Cells were grown at 37° C., CO2 (5%) and air (95%). Each 96-well plate was placed with a concentration gradient of 0˜100 μg/mL of test compounds HTM, HTMA, HTMB, and HTMP. After 24 hours of incubation, the medium was removed, and 0.5 mg/mL MTT solution was added to each medium with cells and continue to incubate the cells for 4 hours at 37° C. Then 100 μL of DMSO was added to dissolve formazan crystals. Finally, absorbance was measured at 570 nm using a microplate reader (Bioteck EON, USA). The viability of the cells was calculated as the percentage of cell viability compared to vehicle control-treated cells, which were arbitrarily assigned as 100% viability. Each independent experiment was repeated five times. (*P<0.05, **P<0.01, ***P<0.001)

bladder cancer = assay: Antitumor activity, MTT cell viability, bladder cancer; format: cell-based; details: 50 μg/mL, 24 hours, P<0.01
Description: as §1

[1] = test system: cocaine reward memory reconsolidation; assay: Drug reward memory reconsolidation, cocaine; format: in vivo, SD rats; details: 3 mg/kg i.p. after exposure to drug-paired box; group IV vs group III; 7th day after reward memory activation; P<0.05
Description: (§2) Drug reward memory reconsolidation: Morphine, an opioid representative, and cocaine, a euphoric representative, were used to establish model addiction. On the first day, baseline was assessed by placing the rats in the center compartment of the CPP apparatus and allowing ad libitum access to all compartments for 15 minutes. And then, male SD rats were divided into the saline+morphine group, the HTMB (3 mg/kg)+morphine group, the saline+cocaine group, and the HTMB (3 mg/kg, i.p.)+cocaine group. The rats were exposed to CPP training from day 2 to 9. On the 10th day, the channel between the three boxes was opened, and the rats were allowed to move freely in the three boxes for 15 minutes for the CPP test. On the 11th day, the CPP expressing rats screened for CPP formation were divided into four groups: the group I (morphine+saline), the group II (morphine+3 mg/kg HTMB), the group III (cocaine+saline), and the group IV (cocaine+3 mg/kg HTMB). After exposure to drug-paired box for 10 minutes, groups I and III were injected with saline (1 ml/kg, i.p.), and the groups II and IV were injected with HTMB (3 mg/kg, i.p.). 24 hours after injection, we defined this as 1 day of activation of the reward memory. The CPP scores were measured on the 7th day after reward memory activation.

[2] = test system: morphine reward memory reconsolidation; assay: Drug reward memory reconsolidation, morphine; format: in vivo, SD rats; details: 3 mg/kg i.p. after exposure to drug-paired box; group II vs group I; 7th day after reward memory activation; P<0.05
Description: as §2

renal cancer = assay: Antitumor activity, MTT cell viability, renal cancer; format: cell-based; details: 24 hours, P<0.01
Description: as §1

[3] = Antioxidant activity, DPPH free radical scavenging; format: biochemical; details: 1~50 μg/mL, 0.1 mM DPPH, absorbance at 517 nm
Description: In this experiment, a 0.1 mM DPPH solution was prepared with ethanol, and each sample solution/dispersion was separately mixed with the DPPH solution in order to dilute it into a reaction product with a concentration gradient of 1˜50 μg/mL to evaluate the concentration-dependent antioxidant potential. The reaction product was measured for its absorbance (AS) at 517 nm using an ultraviolet-visible spectrophotometer, and its antioxidant activity was measured using DPPH removal as an indicator. The percentage of DPPH free radical scavenging is calculated by the following formula: […]
AS is the absorbance of the sample and A0 is the absorbance of the control (only DPPH solution).

liver cancer = assay: Antitumor activity, MTT cell viability, liver cancer; format: cell-based; details: 50 μg/mL, 24 hours, P<0.01
Description: as §1

HepG2 cells = assay: Cellular assay for hepatoprotective activity, CCl4-induced liver injury cell model; format: cell-based; details: compared with the CCl4 group; HepG2 cell homogenates
Description: HepG2 cells were seeded into 24-well plates and kept at 37° C. in 5% CO2 in order to achieve 80% fusion. To evaluate the effects of HTMA, HTMB, and HTMP on aspartate aminotransferase (AST) and alanine aminotransferase (ALT) activity, and compare the results with those of Silymarin (positive control) (FIG. 26), a cellular assay for hepatoprotective activity was carried out using a CCl4-induced liver injury cell model. The cells were treated with the compounds followed by ultrasound disruption and cell homogenization to prepare the cell homogenates for analysis.

[4] = test system: carrageenan-induced paw inflammation; assay: Anti-inflammatory effect in inflammatory model induced by carrageenan (paw); format: in vivo, Kunming mice; details: 10 mg/mL, 10 μL subcutaneous into right hind paw; 4 hours after carrageenan injection; vs carrageenan+solvent group; P<0.05
Description: Male Kunming mice weighing 18˜22 g were adaptively reared for 1 day, and then randomly divided into […] (5˜6 mice per group): the saline+solvent group, the saline+HTM group, the saline+HTMP group, the saline+HTMA group, the saline+HTMB group, the saline+rapamycin (250 nM) group, the carrageenan+solvent group, the carrageenan+HTM group, the carrageenan+HTMP group, the carrageenan+HTMA group, the carrageenan+HTMB group, and the carrageenan+rapamycin (250 nM) group. Where doses used for HTM, HTMP, HTMA, and HTMB were set at 1, 3, and 10 mg/mL, and their solutions all contained 5% DMSO. Experiments were designed based on previous studies (Zhang et al., 2018). Carrageenan was used to induce paw inflammation, and the experimental procedure was as follows:
(1) The thickness of the right hind foot of mice was measured with a vernier caliper before the experiment, and the measurement site was marked.
(2) The experimental group was then subcutaneously injected into the right hind paw with 10 μL of different concentrations of compound solutions. The control group was injected with 10 μL saline into the right hind paw.
(3) After administration, the carrageenan group was injected subcutaneously with 30 μL of 1% carrageenan solution into the right hind paw, and the other groups were injected with an equal volume of saline. The thickness of the right hind foot of each mouse was measured at the same site every 1 hour for the following 4 hours to observe the effect of the compounds on the change in foot thickness.

Compound	survival rate of breast cancer (breast cancer; P<0.05)	survival rate of bladder cancer (bladder cancer)	CPP scores, cocaine reward memory reconsolidation [1]	CPP scores, morphine reward memory reconsolidation [2]	survival rate of renal cancer (renal cancer; […])	antioxidant capacity (DPPH free radical scavenging) [3]	survival rate of breast cancer (breast cancer; P<0.01)	survival rate of liver cancer (liver cancer)	ALT levels (HepG2 cells)	AST levels (HepG2 cells)	survival rate of renal cancer (renal cancer; 50 μg/mL)	right hind foot thickness [4]
C=C(NC(=O)/C=C\C=C\CCCC1=CC(=O)OC(C(O)NC(=O)C(C)=CC(C)NC(=O)/C=C\C=C\C)C1)C(=O)NC(C(=O)N1C(=O)[C@@H](Cc2c[nH]c3ccccc23)N(C)C(=O)/C1=C/C)C(C)OC (some centres unmarked) [HTM, Hangtaimycin]	significantly inhibited	significantly inhibited	inhibit	inhibit	significantly inhibited	have antioxidant capacity						
Deoxyhangtaimycin [HTMP]		significantly inhibited				have antioxidant capacity	significantly inhibited	significantly inhibited	significantly reduced	significantly reduced	significantly inhibited	reduced

Source: patent US12441763B2, “Hangtaimycin derivatives and their preparation methods and application” (WUHAN UNIVERSITY, priority 2022, dated 2025)
